Measured values: patent US11286268B1, “EIF4E-inhibiting compounds and methods” (EFFECTOR THERAPEUTICS, INC., priority 2019, dated 2022)

target: recombinant eIF4E (Homo sapiens (Human), UniProt P06730); assay: Fluorescence polarization competition assay for eIF4E binding potency; conditions: fluorescence polarization competition, 75 nM recombinant eIF4E, 20 nM EDA-m7GDP-ATTO-550; IC50 class; read-out: elF4E FP
Summary of the method: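 Competitive displacement format: compounds compete with a fluorescent m7GDP tracer (20 nM) for 75 nM recombinant eIF4E. Incubation is 30 min at room temperature, protected from light, with 1% DMSO. Polarization read gives IC50 over eight 3-fold concentrations.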

Chain of recombinant eIF4E (P06730 whole entry): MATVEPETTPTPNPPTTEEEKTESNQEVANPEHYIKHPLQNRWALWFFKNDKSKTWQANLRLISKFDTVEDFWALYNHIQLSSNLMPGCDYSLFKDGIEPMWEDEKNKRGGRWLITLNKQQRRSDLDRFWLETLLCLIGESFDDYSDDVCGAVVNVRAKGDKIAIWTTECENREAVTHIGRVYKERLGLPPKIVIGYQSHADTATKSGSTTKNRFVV

`Cc1cc(-c2cc(Cl)ccc2OCCn2c(C)nc3cc(C(F)(F)F)c(N4CCN(C)CC4)c(C#N)c3c2=O)c2scc(C(=O)O)c2n1` [compound 634, 7-(5-chloro-2-(2-(5-cyano-2-methyl-6-(4-methylpiperazin-1-yl)-4-oxo-7-(trifluoromethyl)quinazolin-3(4H)-yl)ethoxy)phenyl)-5-methylthieno[3,2-b]pyridine-3-carboxylic acid] and `Cc1nc2cnc(N(C)C3CCN(CC(C)(F)F)CC3)c(C#N)c2c(=O)n1CC#Cc1ccc(Cl)cc1-c1ccnc2c(C(=O)O)csc12` [compound 1141, 7-(5-chloro-2-(3-(5-cyano-6-((1-(2,2-difluoropropyl)piperidin-4-yl)(methyl)amino)-2-methyl-4-oxopyrido[3,4-d]pyrimidin-3(4H)-yl)prop-1-yn-1-yl)phenyl)thieno[3,2-b]pyridine-3-carboxylic acid] cannot be ordered by IC50: less than 50 nM for the first, less than 50 nM for the second.

same assay, conditions: inhibition of eIF4E/EDA-m7GDP-ATTO-550 binding by 50%; Table 4B calculated values; read-out: IC50

First: Cc1cc(-c2cc(Cl)ccc2OCCn2c(C)nc3cc(C(F)(F)F)c(N4CCN(C)CC4)c(C#N)c3c2=O)c2scc(C(=O)O)c2n1 [compound 634, 7-(5-chloro-2-(2-(5-cyano-2-methyl-6-(4-methylpiperazin-1-yl)-4-oxo-7-(trifluoromethyl)quinazolin-3(4H)-yl)ethoxy)phenyl)-5-methylthieno[3,2-b]pyridine-3-carboxylic acid]
Second: Cc1nc2cnc(N(C)C3CCN(CC(C)(F)F)CC3)c(C#N)c2c(=O)n1CC#Cc1ccc(Cl)cc1-c1ccnc2c(C(=O)O)csc12 [compound 1141, 7-(5-chloro-2-(3-(5-cyano-6-((1-(2,2-difluoropropyl)piperidin-4-yl)(methyl)amino)-2-methyl-4-oxopyrido[3,4-d]pyrimidin-3(4H)-yl)prop-1-yn-1-yl)phenyl)thieno[3,2-b]pyridine-3-carboxylic acid]
The IC50 of the first is 3.4-fold lower: 5.62 nM for the first, 18.9 nM for the second.

same assay, conditions: inhibition of eIF4E/EDA-m7GDP-ATTO-550 binding; calculated IC50 values, Table 4B; read-out: IC50

Compared with `Cc1c(CC2CCOCC2)nc(C#N)c2nc(C)n(CC#Cc3ccc(Cl)cc3-c3ccnc4c(C(=O)O)csc34)c(=O)c12` [compound 1965], `Cc1nc2c(C(F)(F)F)cc(N3CCN(C)CC3)nc2c(=O)n1CC#Cc1ccc(Cl)cc1-c1ccnc2c(C(=O)O)csc12` [compound 1981] is 3.6-fold lower in IC50: 86.4 nM for the first, 23.8 nM for the second. The second is the more potent here.

Going from `N#Cc1cc(C(F)(F)F)cc2c(Cl)c(Cl)n(CCOc3ccc(Cl)cc3-c3ccnc4c(C(=O)O)csc34)c(=O)c12` [compound 1970] to `Cc1cc2cc(C(F)(F)F)cc(C#N)c2c(O)c1CCOc1ccc(Cl)cc1-c1ccnc2c(C(=O)O)csc12` [compound 1976], the IC50 rises from 67.2 nM to 1850 nM (28-fold).

First: Cc1cc(-c2cc(Cl)ccc2OCCn2c(C)nc3cc(C(F)(F)F)c(C4CCN(C)CC4)cc3c2=O)c2sc(C)c(C(=O)O)c2n1 [compound 1971]
Second: Cc1cc(-c2cc(Cl)ccc2OCCn2c(C)nc3cc(C(F)(F)F)c(Cl)nc3c2=O)c2scc(C(=O)O)c2n1 [compound 1978]
The IC50 of the first is 2.1-fold higher: 51.9 nM for the first, 25.3 nM for the second.

Compared with `Cc1nc2cc(C(F)(F)F)c3c(c2c(=O)n1CCOc1ccc(Cl)cc1-c1ccnc2c(C(=O)O)csc12)C(=O)OC3` [compound 1972], `Cc1cc(-c2cc(Cl)ccc2OCCn2c(C)nc3cc(C(F)(F)F)c4c(c3c2=O)C(=O)CC4)c2scc(C(=O)O)c2n1` [compound 1974] is 2.8-fold higher in IC50: 18 nM for the first, 51.3 nM for the second. The first is the more potent here.

Going from `N#Cc1cccc2nc(C(F)F)n(CCOc3ccc(Cl)cc3-c3cccc(C(=O)O)c3)c(=O)c12` [compound 1973] to `O=C(O)c1cccc(-c2cc(Cl)ccc2OCCn2c(C(F)F)nc3cccc(Br)c3c2=O)c1` [compound 2009], the IC50 rises from 14.3 nM to 2150 nM (150-fold).

Compared with `Cc1cc(-c2cc(Cl)ccc2OCCn2c(=O)c3c(C#N)cc(C(F)(F)F)cc3n(C)c2=O)c2scc(C(=O)O)c2n1` [compound 1975], `Cc1nc2cc(C(F)(F)F)cc(C#N)c2c(=O)n1CCOc1ccc(Cl)cc1-c1ccc(F)c2c(C(=O)O)csc12` [compound 2018] is 4.5-fold lower in IC50: 109 nM for the first, 24.4 nM for the second. The second is the more potent here.

`COc1c(CCOc2ccc(Cl)cc2-c2ccnc3c(C(=O)O)csc23)c(C)cc2cc(C(F)(F)F)cc(C#N)c12` [compound 1977] and `COC(=O)c1sc2c(-c3cc(Cl)ccc3OCCn3c(C)nc4cc(C(F)(F)F)cc(C#N)c4c3=O)ccnc2c1O` [compound 2037] cannot be ordered by IC50: greater than 1000 nM for the first, greater than 1000 nM for the second.

Going from `Cc1nc2cncc(C#N)c2c(=O)n1CCOc1ccc(Cl)cc1-c1cccc(C(=O)O)c1` [compound 1982] to `Cc1nc2cncc(Br)c2c(=O)n1CCOc1ccc(Cl)cc1-c1cccc(C(=O)O)c1` [compound 1999], the IC50 rises from 36.4 nM to 482 nM (13-fold). The first is the more potent here.

First: N#Cc1cncc2nc(C(F)F)n(CCOc3ccc(Cl)cc3-c3cccc(C(=O)O)c3)c(=O)c12 [compound 1983]
Second: O=C(O)c1cccc(-c2cc(Cl)ccc2OCCn2c(C(F)F)nc3cncc(Br)c3c2=O)c1 [compound 2010]
The IC50 of the first is 14-fold lower: 82.6 nM for the first, 1190 nM for the second. The first is the more potent here.

Going from `N#Cc1cccc2nc(C(F)F)n(CCOc3ccc(Cl)cc3-c3cccc(C(=O)O)c3)c(=O)c12` [compound 1986] to `N#Cc1cccc2nc(C(F)F)n(CCOc3ccc(Cl)cc3-c3cccc4c(C(=O)O)csc34)c(=O)c12` [compound 2017], the IC50 falls from 78.5 nM to 50.6 nM (1.6-fold).

Compared with `CCC#Cc1c(C(=O)O)cccc1-c1cc(Cl)ccc1OCCn1c(C(F)F)nc2cccc(C#N)c2c1=O` [compound 1987], `C#Cc1c(-c2cc(Cl)ccc2OCCn2c(C(F)F)nc3cccc(C#N)c3c2=O)csc1C(=O)O` [compound 2034] is 210-fold lower in IC50: 1290 nM for the first, 6.2 nM for the second. The second is the more potent here.

First: N#Cc1cc(Br)cc2ncn(CCOc3ccc(Cl)cc3-c3cccc(C(=O)O)c3)c(=O)c12 [compound 1988]
Second: N#Cc1cc(C#N)c2c(=O)n(CCOc3ccc(Cl)cc3-c3cccc(C(=O)O)c3)cnc2c1 [compound 1989]
The IC50 of the first is 1.8-fold lower: 49.5 nM for the first, 89 nM for the second.

`N#Cc1ccc(C#N)c2c(=O)n(CCOc3ccc(Cl)cc3-c3cccc(C(=O)O)c3)cnc12` [compound 1990] and `N#Cc1cc(C(F)(F)F)cc2ncn(CCOc3ccc(Cl)cc3-c3cccc(C(=O)O)c3)c(=O)c12` [compound 1994] are within 1.5-fold of each other in IC50: 58.1 nM for the first, 41.8 nM for the second.

First: O=C(O)c1cccc(-c2cc(Cl)ccc2OCCn2nnc3ccccc3c2=O)c1 [compound 1991]
Second: O=C(O)c1cc(-c2cc(Cl)ccc2OCCn2nnc3ccccc3c2=O)ccn1 [compound 2014]
The IC50 of the first is higher: greater than 300000 nM for the first, 12200 nM for the second.

`O=C(O)c1cccc(-c2cc(Cl)ccc2OCCn2cnc3cnccc3c2=O)c1` [compound 1992] and `O=C(O)c1cccc(-c2cc(Cl)ccc2OCCn2cnc3c(C(F)(F)F)nccc3c2=O)c1` [compound 1993] are within 1.5-fold of each other in IC50: 490 nM for the first, 412 nM for the second.

Compared with `Cc1nc2cnc(C#N)cc2c(=O)n1CCOc1ccc(Cl)cc1-c1cccc(C(=O)O)c1` [compound 1995], `CNc1cc2c(=O)n(CCOc3ccc(Cl)cc3-c3cccc(C(=O)O)c3)c(C)nc2cn1` [compound 2006] is 10-fold higher in IC50: 59.3 nM for the first, 611 nM for the second.

Compared with `N#Cc1cc2c(=O)n(CCOc3ccc(Cl)cc3-c3cccc(C(=O)O)c3)c(C(F)F)nc2cn1` [compound 1996], `O=C(O)c1cccc(-c2cc(Cl)ccc2OCCn2c(C(F)F)nc3cnc(Cl)cc3c2=O)c1` [compound 2008] is 2-fold lower in IC50: 189 nM for the first, 96.1 nM for the second.

Compared with `Cc1nc2c(C#N)nc(C#N)cc2c(=O)n1CCOc1ccc(Cl)cc1-c1cccc(C(=O)O)c1` [compound 1997], `Cc1nc2cnc(CN)cc2c(=O)n1CCOc1ccc(Cl)cc1-c1cccc(C(=O)O)c1` [compound 1998] is 5.3-fold higher in IC50: 77.5 nM for the first, 409 nM for the second.

Compared with `O=C(O)c1cccc(-c2cc(Cl)ccc2OCCn2c(Nc3ccccc3)nc3c(O)nccc3c2=O)c1` [compound 2000], `O=C(O)c1cccc(-c2cc(Cl)ccc2OCCn2c(Nc3ccccc3)nc3c(Cl)nccc3c2=O)c1` [compound 2001] is 3.6-fold higher in IC50: 18200 nM for the first, 65800 nM for the second.

Compared with `Cc1nc2cnc(Nc3cc(F)cc(F)c3)cc2c(=O)n1CCOc1ccc(Cl)cc1-c1cccc(C(=O)O)c1` [compound 2002], `Cc1nc2cnc(Nc3ccccc3)cc2c(=O)n1CCOc1ccc(Cl)cc1-c1cccc(C(=O)O)c1` [compound 2004] is 2.5-fold higher in IC50: 259 nM for the first, 639 nM for the second.

`Cc1nc2cnc(NC3CCCCC3)cc2c(=O)n1CCOc1ccc(Cl)cc1-c1cccc(C(=O)O)c1` [compound 2003] and `Cc1nc2cnc(NC3CCCC3)cc2c(=O)n1CCOc1ccc(Cl)cc1-c1cccc(C(=O)O)c1` [compound 2005] are within 1.5-fold of each other in IC50: 264 nM for the first, 364 nM for the second.

Going from `O=C(O)c1cccc(-c2cc(Cl)ccc2OCCn2c(C(F)(F)F)nc3cnc(Cl)cc3c2=O)c1` [compound 2007] to `Cc1nc2ccc3c(c2c(=O)n1CCOc1ccc(Cl)cc1-c1cccc(C(=O)O)c1)C(=O)N(C)C3` [compound 2011], the IC50 falls from greater than 300000 nM to 529 nM. The second is the more potent here.

First: O=C(O)c1cc2ccc1CCCCCc1nc3cc(C(F)(F)F)cc(Br)c3c(=O)n1CCOc1ccc(Cl)cc1-2 [compound 2013]
Second: Cc1nc2cc(C(F)(F)F)c(N3CC4(C3)CN(C3CC3)C4)c(C#N)c2c(=O)n1CCOc1ccc(Cl)cc1-c1ccnc2ccsc12 [compound 2015]
The IC50 of the first is higher: greater than 10000 nM for the first, 51.1 nM for the second. The second is the more potent here.

Compared with `Cc1nc2cc(C(F)(F)F)c(CN(C)C)c(C#N)c2c(=O)n1CCOc1ccc(Cl)cc1-c1ccnc2ccsc12` [compound 2016], `Cc1nc2cnc(N3CCN(C)C4CC43)c(C#N)c2c(=O)n1CCOc1ccc(Cl)cc1-c1cccc2c(C(=O)O)csc12` (stereo not drawn) [compound 2020] is 19-fold lower in IC50: 613 nM for the first, 33 nM for the second.

First: Cc1cc(-c2cc(CN3CCN(C)CC3)ccc2OCCn2c(C)nc3cc(F)c(CN4CCN(C)CC4)c(C#N)c3c2=O)c2scc(C(=O)O)c2n1 [compound 2027]
Second: Cc1cc(-c2cc(N3CC(F)(F)C3)ccc2OCCn2c(C)nc3cc(C(F)(F)F)c(N4CC(F)(F)C4)c(C#N)c3c2=O)c2scc(C(=O)O)c2n1 [compound 2036]
The IC50 of the first is higher: greater than 1000 nM for the first, 38.4 nM for the second. The second is the more potent here.

With `N#Cc1cccc2nc(C(F)F)n(CCOc3ccc(Cl)cc3-c3ccnc4c(C(=O)O)scc34)c(=O)c12` [compound 2035] the IC50 was 72.3 nM.

tested on: MDA-MB-361 cells; assay: Cell proliferation assay (CELLTITER-GLO); type: cell-based; conditions: Homo sapiens, 144 h, 6 days of treatment, CELLTITER-GLO, % of DMSO control
Experimental: MDA-MB-361 cells were maintained in DMEM supplemented with 10% FBS and 1× penicillin/streptomycin solution at […] in a CO2 incubator. For cell proliferation assays, exponentially growing cells were seeded at 2,000 cells per well in 96-well flat bottom white polystyrene plates (ThermoFisher) and cultured overnight. The following day, compound was added in a 9 point 3-fold dilution series starting from a top concentration of 1 or 10 μM (as indicated) together with a DMSO control. The final DMSO concentration in samples was 0.1%.
Cells were incubated for up to 6 […] at 37° C. in a CO2 incubator. Baseline viability of untreated cells was measured on the day of treatment and proliferation was measured after 6 […] of treatment using CELLTITER-GLO® reagent from Promega (Madison, Wis.) according to the manufacturer's instructions. Response to compound was calculated relative to the DMSO control (% of control) using the formula, % of control (DMSO)=[(CTGcells+inhibitor)/(CTGDMSO control)]×100. Data were plotted using Prism (GraphPad software), and IC50 and Emax values were calculated from a 4 parameter, variable slope non-linear regression model. Results are shown below and in FIGS. 1-3.

Going from `Cc1cc(-c2cc(Cl)ccc2OCCn2c(C)nc3cc(C(F)(F)F)c(N4CCN(C)CC4)c(C#N)c3c2=O)c2scc(C(=O)O)c2n1` [compound 634, 7-(5-chloro-2-(2-(5-cyano-2-methyl-6-(4-methylpiperazin-1-yl)-4-oxo-7-(trifluoromethyl)quinazolin-3(4H)-yl)ethoxy)phenyl)-5-methylthieno[3,2-b]pyridine-3-carboxylic acid] to `Cc1nc2cnc(N(C)C3CCN(CC(C)(F)F)CC3)c(C#N)c2c(=O)n1CC#Cc1ccc(Cl)cc1-c1ccnc2c(C(=O)O)csc12` [compound 1141, 7-(5-chloro-2-(3-(5-cyano-6-((1-(2,2-difluoropropyl)piperidin-4-yl)(methyl)amino)-2-methyl-4-oxopyrido[3,4-d]pyrimidin-3(4H)-yl)prop-1-yn-1-yl)phenyl)thieno[3,2-b]pyridine-3-carboxylic acid], the IC50 rises from 3.8 nM to 361 nM (95-fold). The first is the more potent here.
